Like-named read-outs stand apart in the source and are kept apart here.

Usually IC50 stands for the concentration that gives 50% inhibition. In general, melting point refers to the temperature, or range, at which the solid turns liquid.

The target of one data set is α-glucosidase. Put plainly: α-Glucosidase inhibitory assay. Particulars: in vitro; standard acarbose; N.A * = Not active; read-out: α-Glucosidase IC50 (µM ±SEM). Type of data set: biochemical. On the procedure:
A procedure based on the previously reported procedure with minor modifications was used to determine the inhibitory capacity of the newly designed derivatives of benzothiazole-derived pyrazoline-based thiazole (1–17). For 20 min at 37 °C, […] in 100 mM of phosphate buffer (pH 6.8) for 20 min. The reaction mixture was then incubated for 1 h at 37 °C with 250 mL of 4-nitrophenyl-b-D-glucopyranoside solution and 250 mL of 1% starch dissolved in 100 mM of phosphate buffer (pH 6.8), respectively. Following this, the reaction mixture was heated for 10 min with 1.0 mL of 3,5-dinitrosalicylic acid colouring reagent. The absorbance of the final reaction mixture was determined for α-glucosidase at 405 nm. To correct the absorbance, a blank was prepared. […] A percentage of the inhibitory activity was calculated using a control sample without the inhibitors.

In another data set the target is urease (Canavalia ensiformis, UniProt P07374). Put plainly: biochemical. As for the experimental part: During the experiment, 55 L of buffer solution containing 100 mM of urea was combined with 25 L of enzyme solution to prepare reaction mixtures. A volume of 5 L containing 1 mM concentrations of recently produced compounds was then added to these mixtures. After 15 min of incubation at 30 °C, the reactions were allowed to occur in 96-well plates. The detection of ammonia generation by urease was carried out by using the Indophenol technique. A phenol reagent containing 1% w/v phenol and 0.005% w/v sodium nitroprusside was added to each well along with 70 µL of an alkali reagent containing 0.5% w/v NaOH and 0.1% active chloride NaOCl. Utilizing a microplate reader manufactured by Molecular Device in the United States, the increased absorbance was measured at 630 nm after another 50 min. In triplicate, the aforementioned procedures were performed using a constant end volume of […]. The final data, representing the rate at which the absorbance changed per minute, were analysed with the SoftMax Pro program by Molecular Device, New York, NY, USA. In alkaline conditions with a pH of 8.2, the experiments were conducted using 0.01 M K2HPO4·3H2O, 1 mM EDTA, and 0.01 M LiCl. A conventional inhibitor of urease, thiourea, was used in this study to determine the percentage of inhibition.
Sequence of urease (P07374 whole entry, looked up): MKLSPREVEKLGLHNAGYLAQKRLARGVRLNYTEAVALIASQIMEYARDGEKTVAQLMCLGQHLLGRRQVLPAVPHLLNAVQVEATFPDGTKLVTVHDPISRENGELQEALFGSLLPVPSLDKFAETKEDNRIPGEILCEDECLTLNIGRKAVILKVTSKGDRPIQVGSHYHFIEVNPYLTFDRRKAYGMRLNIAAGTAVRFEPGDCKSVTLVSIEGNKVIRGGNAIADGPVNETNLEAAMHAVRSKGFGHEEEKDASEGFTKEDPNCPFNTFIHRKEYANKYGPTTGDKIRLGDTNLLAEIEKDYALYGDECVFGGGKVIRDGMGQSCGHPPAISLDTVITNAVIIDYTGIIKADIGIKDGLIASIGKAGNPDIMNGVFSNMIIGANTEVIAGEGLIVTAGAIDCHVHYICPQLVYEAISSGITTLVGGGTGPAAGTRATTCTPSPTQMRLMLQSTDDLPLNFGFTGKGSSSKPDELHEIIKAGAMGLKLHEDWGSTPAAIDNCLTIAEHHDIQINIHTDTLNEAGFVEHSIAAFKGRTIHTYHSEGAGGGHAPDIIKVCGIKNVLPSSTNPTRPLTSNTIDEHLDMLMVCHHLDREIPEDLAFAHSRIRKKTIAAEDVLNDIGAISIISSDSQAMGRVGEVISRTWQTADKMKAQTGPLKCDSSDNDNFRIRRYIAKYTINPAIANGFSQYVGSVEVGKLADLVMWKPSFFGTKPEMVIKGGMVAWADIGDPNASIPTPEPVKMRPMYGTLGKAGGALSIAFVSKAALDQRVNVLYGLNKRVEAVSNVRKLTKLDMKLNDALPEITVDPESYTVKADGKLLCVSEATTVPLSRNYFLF

Consider `O=[N+]([O-])c1cc(Br)ccc1-c1csc(N2N=C(c3cc(Cl)cnc3Cl)CC2c2nc3ccccc3s2)n1` (stereo not shown) [Compound 1, 2-(1-(4-(4-Bromo-2-nitrophenyl)thiazol-2-yl)-3-(2,5-dichloropyridin-3-yl)-4,5-dihydro-1H-pyrazol-5-yl)benzo[d]thiazole], for which the melting point lay in the range of 233 to 234 °C. Further, the IC50 on α-glucosidase worked out at 13.1 ± 0.4 µM. The IC50 against urease was determined as 41.5 ± 1.7 µM.
As to `Cc1ccc(C)c(-c2csc(N3N=C(c4cc(Cl)cnc4Cl)CC3c3nc4ccccc4s3)n2)c1` (stereo not shown) [Compound 2, 2-(3-(2,5-Dichloropyridin-3-yl)-1-(4-(2,5-dimethylphenyl)thiazol-2-yl)-4,5-dihydro-1H-pyrazol-5-yl)benzo[d]thiazole], the melting point was in the range of 219 to 220 °C. Moreover, the IC50 at α-glucosidase was 14.2 ± 0.1 µM. Further, at urease, the IC50 was found to be 37.2 ± 1.9 µM.
Take `Cc1ccc(-c2csc(N3N=C(c4cc(Cl)cnc4Cl)CC3c3nc4ccccc4s3)n2)cc1` (stereo not shown) [Compound 3, 2-(3-(2,5-Dichloropyridin-3-yl)-1-(4-(p-tolyl)thiazol-2-yl)-4,5-dihydro-1H-pyrazol-5-yl)benzo[d]thiazole]: the melting point is 227 to 228 °C. Further, the IC50 at α-glucosidase turned out to be 7.5 ± 0.1 µM. On urease, it took 33.2 ± 3.8 µM to reach half-maximal inhibition (IC50).
`O=[N+]([O-])c1ccc(-c2csc(N3N=C(c4cc(Cl)cnc4Cl)CC3c3nc4ccccc4s3)n2)cc1` (stereo not shown) [Compound 4, 2-(3-(2,5-Dichloropyridin-3-yl)-1-(4-(4-nitrophenyl)thiazol-2-yl)-4,5-dihydro-1H-pyrazol-5-yl)benzo[d]thiazole] showed a melting point of 232 to 233 °C. In addition, the IC50 on α-glucosidase amounted to 4.1 ± 0.3 µM. In addition, at urease, the midpoint of inhibition, the IC50, lay at 23.3 ± 2.4 µM.
Taken in the same sequence, the figures for `O=[N+]([O-])c1ccccc1-c1csc(N2N=C(c3cc(Cl)cnc3Cl)CC2c2nc3ccccc3s2)n1` (stereo not shown) [Compound 5, 2-(3-(2,5-Dichloropyridin-3-yl)-1-(4-(2-nitrophenyl)thiazol-2-yl)-4,5-dihydro-1H-pyrazol-5-yl)benzo[d]thiazole] were 224 to 225 °C, 6.7 ± 0.3 µM and 32.5 ± 2.1 µM.
The compound `FC(F)(F)c1ccc(-c2csc(N3N=C(c4cc(Cl)cnc4Cl)CC3c3nc4ccccc4s3)n2)cc1` (stereo not shown) [Compound 6, 2-(3-(2,5-Dichloropyridin-3-yl)-1-(4-(4-(trifluoromethyl)phenyl)thiazol-2-yl)-4,5-dihydro-1H-pyrazol-5-yl)benzo[d]thiazole] registered a melting point of 225 to 226 °C. In addition, the IC50 on α-glucosidase was 2.5 ± 0.3 µM. Moreover, inhibition against urease was half-maximal at 14.3 ± 3.9 µM (IC50).
Compound `Oc1cc(F)ccc1-c1csc(N2N=C(c3cc(Cl)cnc3Cl)CC2c2nc3ccccc3s2)n1` (stereo not shown) [Compound 7, 2-(2-(5-(Benzo[d]thiazol-2-yl)-3-(2,5-dichloropyridin-3-yl)-4,5-dihydro-1H-pyrazol-1-yl)thiazol-4-yl)-5-fluorophenol] returned a melting point of 228 to 229 °C. For the same compound, the IC50 at α-glucosidase was found to be 3.2 ± 0.1 µM. The compound further came in with an IC50 against urease of 19.2 ± 0.1 µM.
`CN(C)c1ccc(-c2csc(N3N=C(c4cc(Cl)cnc4Cl)CC3c3nc4ccccc4s3)n2)cc1` (stereo not shown) [Compound 8, 4-(2-(5-(Benzo[d]thiazol-2-yl)-3-(2,5-dichloropyridin-3-yl)-4,5-dihydro-1H-pyrazol-1-yl)thiazol-4-yl)-N,N-dimethylaniline] displayed a melting point of 231 to 232 °C. For the same compound, the IC50 on urease was 39.2 ± 0.6 µM.
In the case of `O=[N+]([O-])c1cc(Cl)ccc1-c1csc(N2N=C(c3cc(Cl)cnc3Cl)CC2c2nc3ccccc3s2)n1` (stereo not shown) [Compound 9, 2-(1-(4-(4-Chloro-2-nitrophenyl)thiazol-2-yl)-3-(2,5-dichloropyridin-3-yl)-4,5-dihydro-1H-pyrazol-5-yl)benzo[d]thiazole], the melting point was 230 to 231 °C. In addition, the IC50 on α-glucosidase worked out at 4.4 ± 0.3 µM. On urease, this compound showed an IC50 of 29.4 ± 0.1 µM.
Compound `COc1ccc(OC)c(-c2csc(N3N=C(c4cc(Cl)cnc4Cl)CC3c3nc4ccccc4s3)n2)c1` (stereo not shown) [Compound 10, 2-(3-(2,5-Dichloropyridin-3-yl)-1-(4-(2,5-dimethoxyphenyl)thiazol-2-yl)-4,5-dihydro-1H-pyrazol-5-yl)benzo[d]thiazole] had a melting point of 234 to 235 °C. The IC50 on α-glucosidase worked out at 8.9 ± 0.2 µM. For the same compound, the IC50 on urease is 33.7 ± 0.1 µM.
`Fc1ccccc1-c1csc(N2N=C(c3cc(Cl)cnc3Cl)CC2c2nc3ccccc3s2)n1` (stereo not shown) [Compound 11, 2-(3-(2,5-Dichloropyridin-3-yl)-1-(4-(2-fluorophenyl)thiazol-2-yl)-4,5-dihydro-1H-pyrazol-5-yl)benzo[d]thiazole] registered a melting point of 221 to 222 °C.
As for `Fc1ccc(-c2csc(N3N=C(c4cc(Cl)cnc4Cl)CC3c3nc4ccccc4s3)n2)cc1` (stereo not shown) [Compound 12, 2-(3-(2,5-Dichloropyridin-3-yl)-1-(4-(4-fluorophenyl)thiazol-2-yl)-4,5-dihydro-1H-pyrazol-5-yl)benzo[d]thiazole], the melting point was 226 to 227 °C. For the same compound, the IC50 at α-glucosidase is 3.5 ± 0.1 µM. On urease, this compound came in with an IC50 of 22.3 ± 0.8 µM.
On to `Clc1cnc(Cl)c(C2=NN(c3nc(-c4ccc(OCc5ccccc5)cc4)cs3)C(c3nc4ccccc4s3)C2)c1` (stereo not shown) [Compound 13, 2-(1-(4-(4-(Benzyloxy)phenyl)thiazol-2-yl)-3-(2,5-dichloropyridin-3-yl)-4,5-dihydro-1H-pyrazol-5-yl)benzo[d]thiazole], for which the melting point was 242 to 243 °C.
In turn, `Oc1cc(Cl)cc(Cl)c1-c1csc(N2N=C(c3cc(Cl)cnc3Cl)CC2c2nc3ccccc3s2)n1` (stereo not shown) [Compound 14, 2-(2-(5-(Benzo[d]thiazol-2-yl)-3-(2,5-dichloropyridin-3-yl)-4,5-dihydro-1H-pyrazol-1-yl)thiazol-4-yl)-3,5-dichlorophenol] displayed a melting point of 238 to 239 °C. Further, on α-glucosidase, the IC50 came out at 3.4 ± 0.1 µM. Also, on urease, the IC50 is 21.8 ± 2.9 µM.
`Cc1cc(-c2csc(N3N=C(c4cc(Cl)cnc4Cl)CC3c3nc4ccccc4s3)n2)cc(C)c1Br` (stereo not shown) [Compound 15, 2-(1-(4-(4-Bromo-3,5-dimethylphenyl)thiazol-2-yl)-3-(2,5-dichloropyridin-3-yl)-4,5-dihydro-1H-pyrazol-5-yl)benzo[d]thiazole] showed a melting point of 221 to 222 °C.
On the same count and under the same terms, the figure for `Clc1cnc(Cl)c(C2=NN(c3nc(-c4ccc5ccccc5c4)cs3)C(c3nc4ccccc4s3)C2)c1` (stereo not shown) [Compound 16, 2-(3-(2,5-Dichloropyridin-3-yl)-1-(4-(naphthalen-2-yl)thiazol-2-yl)-4,5-dihydro-1H-pyrazol-5-yl)benzo[d]thiazole] is 243 to 244 °C.
For `Clc1cnc(Cl)c(C2=NN(c3nc(-c4cccc(Cl)c4Cl)cs3)C(c3nc4ccccc4s3)C2)c1` (stereo not shown) [Compound 17, 2-(1-(4-(2,3-Dichlorophenyl)thiazol-2-yl)-3-(2,5-dichloropyridin-3-yl)-4,5-dihydro-1H-pyrazol-5-yl)benzo[d]thiazole], the melting point lay within 236 to 237 °C. Further, the IC50 at α-glucosidase is 6.8 ± 0.2 µM. On urease, the IC50 was found to be 31.3 ± 0.4 µM.
Consider `NC(N)=S` [Thiourea, thiourea, reference compound], for which the IC50 at urease (in vitro, standard thiourea, N.A * = Not active, read-out: Urease IC50 (µM ± SEM)) was 31.4 ± 2.5 µM.

The record behind these values is paper PMC10747725, “The Synthesis, In Vitro Bio-Evaluation, and In Silico Molecular Docking Studies of Pyrazoline–Thiazole Hybrid Analogues as Promising Anti-α-Glucosidase and Anti-Urease Agents” (Pharmaceuticals, 2023).
